ChEMBL document CHEMBL1201862, “PubChem BioAssay data set” (2004)
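Step 1: Grow cells in 96-well plates. Step 2: Expose to compound for 48 hours at 5 concentrations. Step 3: Interpolate endpoints linearly; if unreached, use highest concentration. Here, GI50 denotes the concentration required for 50% inhibition of growth.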 Activity calls are given as the source filed them. Cut-off read from the data, not from the text of the source: active = GI50 up to about 1.1 µM and inactive = higher.

How the values were obtained:
Assay in all cases: NCI-60 cell line screen, 48 h
HOP-18 = system: HOP-18
NCI/ADR-RES = system: NCI/ADR-RES
KM-20L2 = system: KM-20L2
HCC 2998 = system: HCC 2998
MCF7 = system: MCF7
K562 = system: K562
OVCAR-3 = system: OVCAR-3
DMS-273 = system: DMS-273
NCI-H23 = system: NCI-H23
SF-295 = system: SF-295
CCRF-CEM = system: CCRF-CEM
XF498 = system: XF498
HOP-92 = system: HOP-92
A498 = system: A498
HOP-62 = system: HOP-62
M19-MEL = system: M19-MEL
TK-10 = system: TK-10
RXF 631 = system: RXF 631
LXFL 529 = system: LXFL 529
SR = system: SR

Row | Compound | GI50 (HOP-18) | GI50 (NCI/ADR-RES) | GI50 (KM-20L2) | GI50 (HCC 2998) | GI50 (MCF7) | GI50 (K562) | GI50 (OVCAR-3) | GI50 (DMS-273) | GI50 (NCI-H23) | GI50 (SF-295) | GI50 (CCRF-CEM) | GI50 (XF498) | GI50 (HOP-92) | GI50 (A498) | GI50 (HOP-62) | GI50 (M19-MEL) | GI50 (TK-10) | GI50 (RXF 631) | GI50 (LXFL 529) | GI50 (SR)
1 | CC(C)=CCC/C(C)=C/CCC1(C)C=Cc2c(c3ccccc3oc2=O)O1 (configuration not stated) | 17.3 µM (inactive) | 16.7 µM (inactive) | 19.4 µM (inactive) | 17.7 µM (inactive) | 16.5 µM (inactive) | 23.6 µM (inactive) | 18.1 µM (inactive) | 16.9 µM (inactive) | 14.8 µM (inactive) | 18.8 µM (inactive) | 38.5 µM (inactive) | 15.5 µM (inactive) | 12.2 µM (inactive) | 13.4 µM (inactive) | 13.2 µM (inactive) | 17.3 µM (inactive) |  |  |  | 
2 | CSc1cc(-c2cc3ccccc3o2)oc(=O)c1C#N | 0.637 µM (active) |  | > 100 µM (inactive) | > 100 µM (inactive) |  | > 100 µM (inactive) |  | > 100 µM (inactive) | > 100 µM (inactive) | 40.9 µM (inactive) | > 100 µM (inactive) | 5.83 µM (inactive) | 0.301 µM (active) | > 100 µM (inactive) |  |  | 21.8 µM (inactive) | 64.7 µM (inactive) | > 100 µM (inactive) | 15.5 µM (inactive)
3 | O=C1Sc2ccccc2/C1=N/Nc1ccccc1[N+](=O)[O-] |  |  |  | > 100 µM (inactive) | 17 µM (inactive) | > 100 µM (inactive) | > 100 µM (inactive) |  | > 100 µM (inactive) | > 100 µM (inactive) | > 100 µM (inactive) |  | > 100 µM (inactive) | > 100 µM (inactive) | > 100 µM (inactive) |  | > 100 µM (inactive) |  |  | > 100 µM (inactive)
4 | CC1(C)O[C@@H](C[C@]2(C#N)C[C@H](CCl)OC(C)(C)O2)C[C@@H](C#N)O1 | > 100 µM (inactive) |  | > 100 µM (inactive) | > 100 µM (inactive) |  | > 100 µM (inactive) | > 100 µM (inactive) | > 100 µM (inactive) | > 100 µM (inactive) | > 100 µM (inactive) | > 100 µM (inactive) | 55.8 µM (inactive) | 78.9 µM (inactive) | > 100 µM (inactive) | > 100 µM (inactive) | > 100 µM (inactive) | > 100 µM (inactive) |  |  | > 100 µM (inactive)
5 | COc1cc2c(cc1OC)-c1cc3ccccc3c[n+]1CC2 |  | > 100 µM (inactive) |  | > 100 µM (inactive) | 70.3 µM (inactive) | 48.4 µM (inactive) | 51.5 µM (inactive) |  | > 100 µM (inactive) | 74.8 µM (inactive) | > 100 µM (inactive) |  | > 100 µM (inactive) |  | > 100 µM (inactive) |  | > 100 µM (inactive) |  |  | 68.2 µM (inactive)
6 | C=C(C)C(=O)O[C@H]1CC2=C[C@@H](C[C@@]3(C)O[C@@H]3[C@H]3OC(=O)C(=C)[C@@H]31)OC2=O [ELEPHANTOPIN] | 4.33 µM (inactive) | 1.14 µM (inactive) | 4.69 µM (inactive) | 5.11 µM (inactive) | 1.14 µM (inactive) |  | 1.2 µM (inactive) | 2.79 µM (inactive) | 1.87 µM (inactive) | 5.57 µM (inactive) |  |  | 1.13 µM (inactive) | 5.13 µM (inactive) | 52.5 µM (inactive) | 2.49 µM (inactive) |  |  |  | 
7 | COC1=C2CC(C)CC(OC)C(O)C(C)/C=C(\C)C(OC(N)=O)C(OC)/C=C\C=C(/C)C(=O)NC(=C(/C=N/C(C)(C)C)C1=O)C2=O (configuration not stated) | 6.85 µM (inactive) | 5.7 µM (inactive) | 2.28 µM (inactive) | 1.68 µM (inactive) | 2.89 µM (inactive) | 0.82 µM (active) | 0.585 µM (active) | 0.986 µM (active) | 0.849 µM (active) | 5.02 µM (inactive) | 0.857 µM (active) | 0.767 µM (active) | 0.303 µM (active) | 3.57 µM (inactive) | 5.86 µM (inactive) | 4.45 µM (inactive) |  |  |  | 
8 | O=C1CNc2cc(N3CCCCC3)ccc2N1 |  | > 100 µM (inactive) |  | > 100 µM (inactive) | > 100 µM (inactive) | > 100 µM (inactive) | > 100 µM (inactive) |  | > 100 µM (inactive) | > 100 µM (inactive) | 99.5 µM (inactive) |  | > 100 µM (inactive) |  | > 100 µM (inactive) |  | > 100 µM (inactive) |  |  | 74.6 µM (inactive)
9 | O=C(Nc1cccc(O)c1)C(=O)C(C(=O)c1ccccc1F)C1OC(=O)c2ccccc21 (configuration not stated) |  |  | 25.7 µM (inactive) | 22.2 µM (inactive) |  | 37.3 µM (inactive) |  | 24.2 µM (inactive) | 27 µM (inactive) | 52.6 µM (inactive) | 18.3 µM (inactive) |  | 68.1 µM (inactive) | 66.5 µM (inactive) | 29.9 µM (inactive) | 18.1 µM (inactive) | 58.9 µM (inactive) | 21.6 µM (inactive) | 16.4 µM (inactive) | 24.9 µM (inactive)
10 | c1ccc(CCn2cncn2)cc1 |  |  | > 100 µM (inactive) | > 100 µM (inactive) |  | > 100 µM (inactive) | > 100 µM (inactive) | > 100 µM (inactive) | > 100 µM (inactive) | > 100 µM (inactive) | > 100 µM (inactive) |  | > 100 µM (inactive) |  | > 100 µM (inactive) | > 100 µM (inactive) | > 100 µM (inactive) | > 100 µM (inactive) | > 100 µM (inactive) | > 100 µM (inactive)
11 | Cc1cn(C2CC(O)C(CO)C2C)c(=O)[nH]c1=O (configuration not stated) | > 100 µM (inactive) |  | > 100 µM (inactive) | > 100 µM (inactive) |  | > 100 µM (inactive) | > 100 µM (inactive) | > 100 µM (inactive) | > 100 µM (inactive) | > 100 µM (inactive) | > 100 µM (inactive) | > 100 µM (inactive) | > 100 µM (inactive) |  | > 100 µM (inactive) | > 100 µM (inactive) |  | > 100 µM (inactive) | > 100 µM (inactive) | 
12 | C=C1C[C@@H]2C[C@@H](C)CC(O)[C@]2(CCCN)C1O (some centres not stated) | > 100 µM (inactive) |  | > 100 µM (inactive) | > 100 µM (inactive) |  | > 100 µM (inactive) | > 100 µM (inactive) | > 100 µM (inactive) | > 100 µM (inactive) | > 100 µM (inactive) | > 100 µM (inactive) | > 100 µM (inactive) | > 100 µM (inactive) | > 100 µM (inactive) | > 100 µM (inactive) | > 100 µM (inactive) | > 100 µM (inactive) | > 100 µM (inactive) | > 100 µM (inactive) | > 100 µM (inactive)
13 | COc1cc(O)c2c(c1)C(=O)c1cc(C)cc(O)c1C2=O [PHYSCION] | 51.9 µM (inactive) |  | > 100 µM (inactive) | > 100 µM (inactive) |  | > 100 µM (inactive) | > 100 µM (inactive) |  | > 100 µM (inactive) | > 100 µM (inactive) | > 100 µM (inactive) |  |  | > 100 µM (inactive) | > 100 µM (inactive) | > 100 µM (inactive) |  | > 100 µM (inactive) | > 100 µM (inactive) | > 100 µM (inactive)
14 | CN1CCN(P2(=S)Oc3ccc4ccccc4c3-c3c(ccc4ccccc34)O2)CC1 | > 65.2 µM (inactive) | 28.7 µM (inactive) | 22.8 µM (inactive) | 21 µM (inactive) | 13.6 µM (inactive) | 20.7 µM (inactive) | 27.9 µM (inactive) | 22.4 µM (inactive) | 37.5 µM (inactive) | 34.9 µM (inactive) | 29.8 µM (inactive) | 28.8 µM (inactive) | 13.6 µM (inactive) | 52.5 µM (inactive) | 26.3 µM (inactive) | 30.3 µM (inactive) |  |  |  | 
15 | CCCCCCCCCCCCCCCCCc1cc(Cl)nc(Cl)n1 |  | > 100 µM (inactive) |  | > 100 µM (inactive) | 36.6 µM (inactive) | > 100 µM (inactive) | > 100 µM (inactive) |  | > 100 µM (inactive) | > 100 µM (inactive) | > 100 µM (inactive) |  |  |  | > 100 µM (inactive) |  | > 100 µM (inactive) |  |  | > 100 µM (inactive)
16 | CNC1=C(C)C(=O)C2=C(C1=O)C(COC(N)=O)C1(OC)C3NC3CN21 (configuration not stated) |  |  |  | 0.313 µM (active) | 0.107 µM (active) | 4.07 µM (inactive) | 3.36 µM (inactive) |  | 0.105 µM (active) | 0.0853 µM (active) | 4.19 µM (inactive) |  | > 10 µM (inactive) | 0.632 µM (active) | 0.092 µM (active) |  | 3.1 µM (inactive) |  |  | 0.0462 µM (active)
17 | C/C(=N\NS(=O)(=O)c1ccccc1)c1ccccc1 | > 100 µM (inactive) | > 100 µM (inactive) | > 100 µM (inactive) | > 100 µM (inactive) | > 94 µM (inactive) | > 100 µM (inactive) | > 100 µM (inactive) | > 100 µM (inactive) | > 100 µM (inactive) | > 100 µM (inactive) | > 100 µM (inactive) | > 100 µM (inactive) | > 100 µM (inactive) |  | > 100 µM (inactive) |  |  |  |  | 
